Results published in US20260364027A1, “ENHANCER OF CARDIOLIPIN MOLECULAR SPECIES AS MITOCHONDRIAL COMPONENT” (WATANABE OYSTER LABORATORY, CO., LTD., priority 2022, published 2026).

Legend:
[1] = background; compared with existing antioxidants; cited from earlier work
HADHB = assay: qPCR expression of CL remodeling/degradation-related gene HADHB in HK-2 cells under oxidative stress; assay type: cell-based, human; settings: oxidative stress (100 μM BSO) + DHMBA 250 or 500 μM, 24 h, HK-2, β-actin corrected, control = 1
Procedure: (§1) FIG. 6 is an explanatory drawing for describing changes in the expression levels of genes related to CL remodeling and degradation of DHMBA under oxidative stress conditions. HK-2 cells were cultured with 100 μM BSO and 250 or 500 μM DHMBA, and then the expression levels of genes related to […] were measured by qPCR. Mean±SD (n=4).
(§2) Therefore, in the present invention, the analysis of the expression levels of genes related to cardiolipin biosynthesis, remodeling, and degradation in response to oxidative stress stimulation was verified.
(§3) HK-2 cells were seeded in a 6-well plate at a density of 5.0×10^4 cells/well and cultured for 24 hours.
(§4) Next, under the same stimulus conditions as described above, 2 mL thereof was added to each well. […] The concentration of the purified RNA was quantified by Nanodrop (Invitrogen). […]
(§5) The gene expression levels were measured according to a protocol for THUNDERBIRD (registered trademark) SYBR (registered trademark) qPCR Mix (TOYOBO). Measurements were performed using a CFX Connect™ real-time PCR analysis system (BioRad), and analyzed using a 2^−(ΔΔCT) method.
(§6) The gene expression level of the control group was set at 1 for comparison. The figures are expressed as mean±SD (n=4 for each group). […]
(§7) The data obtained were expressed as mean±standard deviation (SD), and statistical analysis was performed using JMP Pro 16 (SAS Institute Inc.). […]

CDS2 = assay: qPCR expression of CL biosynthesis-related gene CDS2 in HK-2 cells under oxidative stress; assay type: cell-based, human; settings: oxidative stress (100 μM BSO) + DHMBA 250 or 500 μM, 24 h, HK-2, β-actin corrected, control = 1
Procedure: FIG. 5 is an explanatory drawing for describing changes in expression level of CL biosynthesis-related genes of DHMBA under oxidative stress conditions. HK-2 cells were cultured with 100 μM BSO and 250 or 500 μM DHMBA, and then the expression levels of CL biosynthesis-related genes were measured by qPCR. Mean±SD (n=4).
as §2, §3, §4, §5, §6, §7

[2] = system: human renal proximal tubule cells (HK-2); assay: Cardiolipin measurement by LC-MS/MS in HK-2 cells under oxidative stress stimulation (molecular species, total content, acyl groups); assay type: cell-based; settings: oxidative stress (100 μM BSO) + DHMBA 250 or 500 μM
Procedure: FIG. 2 is an explanatory drawing for describing increase effects of DHMBA on CL molecular species under oxidative stress conditions. HK-2 cells were cultured with 100 μM BSO and 250 or 500 μM DHMBA, and then recovered and CL was measured using LC-MS/MS. Mean±SD (n=4).
FIG. 3 is an explanatory drawing for describing increase effects of DHMBA on total CL content under oxidative stress conditions. HK-2 cells were cultured with 100 μM BSO and 250 or 500 μM DHMBA, and then recovered and CL was measured using LC-MS/MS. Mean±SD (n=4).
FIG. 4 is an explanatory drawing for describing CL acyl group modification due to addition of DHMBA under oxidative stress conditions. HK-2 cells were cultured with 100 μM BSO and 250 or 500 μM DHMBA, and then recovered and CL was measured using LC-MS/MS. Mean±SD (n=4).
Human renal proximal tubule cells (HK-2) were subcultured in Dulbecco's Modified Eagle's Medium (DMEM, Nacalai Tesque) containing 10% fetal bovine serum and 1% penicillin-streptomycin at 37 °C in a 5% CO2 incubator. The following experiments were conducted using the oxidative stress inducer to confirm the cardiolipin increase effect of DHMBA on the oxidative stress.
HK-2 cells were seeded in a 6-well plate at a density of 1.0×10^5 cells/well and cultured for 24 hours. The cells were then divided into four groups with different stimulus conditions, and 2 mL thereof was added to each well.
The above-described four groups with the different stimulus conditions are as follows.
Control group (culture medium); oxidative stress group (final concentration 100 μM Oxidative Stress); oxidative stress+DHMBA 250 group (final concentration 100 μM Oxidative Stress+final concentration 250 μM DHMBA); and oxidative stress+DHMBA 500 group (final concentration 100 μM Oxidative Stress+final concentration 500 μM DHMBA).
After 24 hours, the cells were washed twice with phosphate-buffered saline (hereinafter referred to as PBS), and then 1 mL of PBS was added to each well and the cells were recovered using a scraper. In this cell suspension, 100 μL was used for protein quantification by a bicinchoninic acid (BCA) method. The protein concentration was used for correction of the cardiolipin concentration. The remaining cell suspension was centrifuged at 1,200 rpm for 5 minutes, the supernatant was removed, and then the precipitated cells were stored at −80 °C.
For the cardiolipin measurement, the total intracellular lipids were extracted in the same way as in the previous reports (Chen Z, et al. Metabolomics, 16: 115, 2020). […]
as §7

mitochondria = settings: under oxidative stress conditions; results so far; cited from earlier work
[3] = system: antioxidant gene groups (such as HO-1 and NQO1); settings: background, to date; cited from earlier work
PNPLA8 = assay: qPCR expression of CL remodeling/degradation-related gene PNPLA8 in HK-2 cells under oxidative stress; assay type: cell-based, human; settings: oxidative stress (100 μM BSO) + DHMBA 250 or 500 μM, 24 h, HK-2, β-actin corrected, control = 1
Procedure: as §1, §2, §3, §4, §5, §6, §7

Keap1-Nrf2 pathway = settings: background, to date; cited from earlier work
[4] = background, to date; cited from earlier work

In the case of `COc1c(O)cc(CO)cc1O` [DHMBA, 3,5-dihydroxy-4-methoxy benzyl alcohol], the Cytotoxicity [1] is given as “lower cytotoxicity than existing antioxidants”, the “HADHB gene expression level” value (HADHB) is given as “increased” and the “CDS2 gene expression level” value (CDS2) is given as “decreased to the same level as the control group”. For the same compound, the “Change in cardiolipin molecular species” value ([2]; 24 h, HK-2, n=4, vs control group) was “almost all the cardiolipin molecular species increased significantly”, the “Change in saturated fatty acid chain FA16:0 of cardiolipin” value ([2]; HK-2, n=4) was “decreased” and the “Change in unsaturated fatty acid chain FA18:1 of cardiolipin” value ([2]; HK-2, n=4) was “increased”. The “Change in unsaturated fatty acid chain FA18:2 of cardiolipin” value ([2]; HK-2, n=4) was “increased”, the “Protective effect on mitochondria” value (mitochondria) was “protective effect on mitochondria under oxidative stress conditions” and the “Induction of the expression of antioxidant gene groups (such as HO-1 and NQO1)” value [3] was “confirmed”. The “PNPLA8 gene expression level” value (PNPLA8) was “decreased to the same level as the control group”, the “Activation of the Keap1-Nrf2 pathway” value (Keap1-Nrf2 pathway) was “confirmed” and the Radical scavenging ability [4] was “confirmed”.
